Test system: HeLa cells
Experiment: 14C-leucine protein incorporation assay in HeLa cells
Format: cell-based, human
Details: 30 min labeling, CHX 10 ug/ml
Experimental: Since NV-5138 is an amino acid, we performed two different experiments to rule out any potential liabilities that could arise from the incorporation of NV-5138 into proteins. We first determined whether NV-5138 substitutes for any branched-chain amino acid or methionine into newly synthesized proteins using liquid chromatography followed by tandem mass spectroscopy (LC-MS/MS). NV-5138 (100 µM) or vehicle was incubated with serum and leucine-starved 293T cells for 6 hours followed by proteomic analysis by mass spectrometry.
After incubation, cells were harvested and lysed in Tris/HCl 10 mM pH 7.4 plus 1% NP40. Lysate were mixed with water and 20% trichloroacetic acid (1:1:2) and incubated on ice for 2 h to precipitate the protein. Proteins were collected by centrifugation, solubilized in NaOH, placed in scintillation fluid and read on a Wallac Microbeta Trilux 2450 with a 2-min count. Scintillation values were normalized as the percentage of the counts from the DMSO-treated wells.

C[C@@H]1C[C@@H]([C@H](O)CC2CC(=O)NC(=O)C2)C(=O)[C@@H](C)C1 [cyclohexamide, reference compound]
effect on incorporation of 14C-leucine into precipitated proteins: blocked incorporation
